Tests used:
RyR1 / calstabin1 = biological target: T1, RyR1 / calstabin1 (Mus musculus, UniProt E9PZQ0); experiment: RyR1 PKA phosphorylation and calstabin1 bound to RyR1 in soleus muscle of heart failure mice; format: in vivo
T1 construct: increase of calstabin1 in the RyR1 complex in soleus muscles in vivo; from tissue; host or cells: soleus muscle of wild-type and calstabin2-/- mice with post-infarction heart failure
Protocol: Embodiment A are bar graphs of PKA phosphorylation of RyR1 at Ser-2844 in mice, which corresponds to Ser-2843 in humans.
Equivalent amounts of RyR1 were immunoprecipitated with an antibody against RyR1. Embodiment A are bar graphs show the amount of PKA phosphorylation of RyR1 at Ser-2844 in mice (corresponding to human Ser-2843). […] Embodiment B are bar graphs showing the amount of calstabin1 bound to RyR1 from wild-type or calstabin2^−/− mice treated with JTV519 or placebo. Mice were treated with JTV519 by implantable osmotic minipumps using a dose of 0.5 mg/kg/day.

RyR1 [1] = biological target: T2, RyR1 (Mus musculus, UniProt E9PZQ0); experiment: Single-channel recordings of RyR1 from soleus muscle of mdx mice; format: biochemical; details: 1.0 μM JTV-519, cytoplasmic Ca2+ 150 nM, vs untreated wild-type
T2 construct: single channel current trace of RyR1 from soleus muscle of control (wild-type) mouse; from tissue; host or cells: skeletal (soleus) muscle of mdx mice or of wild-type mice with heart failure
From the text: Embodiments A and B are, respectively, a single channel current trace and an amplitude histogram of RyR1 from soleus muscle of a control (wild-type) mouse under resting conditions. Embodiments C and D are, respectively, a single channel current trace and an amplitude histogram of RyR1 from soleus muscle of an mdx mouse.
In FIG. 11, channel openings are represented as upward deflections; ‘c’ indicates the closed state; and 4 pA current open amplitude is indicated by dash. Upper traces represent 5 secs and lower traces 500 ms; dotted lines indicate subconductance states.
Increased Po in mdx mice is consistent with intracellular Ca^2+ leak. The amplitude histograms in embodiments B, D, and F show multiple subconductance states consistent with calstabin1 (FKBP12) depletion in RyR1 from mdx soleus muscle.

[2] = biological target: PKA phosphorylated RyR1 / calstabin1 (Homo sapiens, UniProt P21817); experiment: Calstabin1 binding to immunoprecipitated PKA phosphorylated skeletal RyR1 at increasing JTV519 concentrations
From the text: Sediment represents only calstabin bound to RyR.

RyR1 [3] = biological target: T2, RyR1; experiment: RyR1 single-channel tracings from skeletal muscle of heart failure mice treated in vivo; details: mice with heart failure and increased muscle fatigue, 150 nM cytoplasmic Ca2+
From the text: Embodiments A and C are single channel current traces of wild-type mice with heart failure treated with placebo (A) and JTV-519 (C). Embodiments B and D are amplitude histograms for wild-type mice with heart failure treated with placebo (B) and JTV-519 (D).
For the amplitude histograms in embodiment B and D, amplitude is represented on the x axis, and events indicates the number of channel openings. Po, To and Tc values correspond to the representative traces. Treatment as indicated on top of traces.

soleus muscle = experiment: Soleus muscle fatigue time in mice with heart failure from myocardial infarction; format: in vivo, mouse
From the text: Soleus muscles from JTV519-treated wild-type mice or calstabin2^−/− mice with heart failure from myocardial infarction are more resistant to fatigue (P<0.05) compared to placebo-treated mice. After completion of treatment, soleus muscle was dissected and mounted in a tissue bath to assess isolated skeletal muscle function. Representative 50% of maximal tetanic force fatigue time tracings are shown for wild-type and calstabin2^−/− mice, treated with JTV519 or placebo, in embodiment A. In embodiment B are shown bar graph summarizing mean time to fatigue.

T1 sequence (E9PZQ0 whole entry): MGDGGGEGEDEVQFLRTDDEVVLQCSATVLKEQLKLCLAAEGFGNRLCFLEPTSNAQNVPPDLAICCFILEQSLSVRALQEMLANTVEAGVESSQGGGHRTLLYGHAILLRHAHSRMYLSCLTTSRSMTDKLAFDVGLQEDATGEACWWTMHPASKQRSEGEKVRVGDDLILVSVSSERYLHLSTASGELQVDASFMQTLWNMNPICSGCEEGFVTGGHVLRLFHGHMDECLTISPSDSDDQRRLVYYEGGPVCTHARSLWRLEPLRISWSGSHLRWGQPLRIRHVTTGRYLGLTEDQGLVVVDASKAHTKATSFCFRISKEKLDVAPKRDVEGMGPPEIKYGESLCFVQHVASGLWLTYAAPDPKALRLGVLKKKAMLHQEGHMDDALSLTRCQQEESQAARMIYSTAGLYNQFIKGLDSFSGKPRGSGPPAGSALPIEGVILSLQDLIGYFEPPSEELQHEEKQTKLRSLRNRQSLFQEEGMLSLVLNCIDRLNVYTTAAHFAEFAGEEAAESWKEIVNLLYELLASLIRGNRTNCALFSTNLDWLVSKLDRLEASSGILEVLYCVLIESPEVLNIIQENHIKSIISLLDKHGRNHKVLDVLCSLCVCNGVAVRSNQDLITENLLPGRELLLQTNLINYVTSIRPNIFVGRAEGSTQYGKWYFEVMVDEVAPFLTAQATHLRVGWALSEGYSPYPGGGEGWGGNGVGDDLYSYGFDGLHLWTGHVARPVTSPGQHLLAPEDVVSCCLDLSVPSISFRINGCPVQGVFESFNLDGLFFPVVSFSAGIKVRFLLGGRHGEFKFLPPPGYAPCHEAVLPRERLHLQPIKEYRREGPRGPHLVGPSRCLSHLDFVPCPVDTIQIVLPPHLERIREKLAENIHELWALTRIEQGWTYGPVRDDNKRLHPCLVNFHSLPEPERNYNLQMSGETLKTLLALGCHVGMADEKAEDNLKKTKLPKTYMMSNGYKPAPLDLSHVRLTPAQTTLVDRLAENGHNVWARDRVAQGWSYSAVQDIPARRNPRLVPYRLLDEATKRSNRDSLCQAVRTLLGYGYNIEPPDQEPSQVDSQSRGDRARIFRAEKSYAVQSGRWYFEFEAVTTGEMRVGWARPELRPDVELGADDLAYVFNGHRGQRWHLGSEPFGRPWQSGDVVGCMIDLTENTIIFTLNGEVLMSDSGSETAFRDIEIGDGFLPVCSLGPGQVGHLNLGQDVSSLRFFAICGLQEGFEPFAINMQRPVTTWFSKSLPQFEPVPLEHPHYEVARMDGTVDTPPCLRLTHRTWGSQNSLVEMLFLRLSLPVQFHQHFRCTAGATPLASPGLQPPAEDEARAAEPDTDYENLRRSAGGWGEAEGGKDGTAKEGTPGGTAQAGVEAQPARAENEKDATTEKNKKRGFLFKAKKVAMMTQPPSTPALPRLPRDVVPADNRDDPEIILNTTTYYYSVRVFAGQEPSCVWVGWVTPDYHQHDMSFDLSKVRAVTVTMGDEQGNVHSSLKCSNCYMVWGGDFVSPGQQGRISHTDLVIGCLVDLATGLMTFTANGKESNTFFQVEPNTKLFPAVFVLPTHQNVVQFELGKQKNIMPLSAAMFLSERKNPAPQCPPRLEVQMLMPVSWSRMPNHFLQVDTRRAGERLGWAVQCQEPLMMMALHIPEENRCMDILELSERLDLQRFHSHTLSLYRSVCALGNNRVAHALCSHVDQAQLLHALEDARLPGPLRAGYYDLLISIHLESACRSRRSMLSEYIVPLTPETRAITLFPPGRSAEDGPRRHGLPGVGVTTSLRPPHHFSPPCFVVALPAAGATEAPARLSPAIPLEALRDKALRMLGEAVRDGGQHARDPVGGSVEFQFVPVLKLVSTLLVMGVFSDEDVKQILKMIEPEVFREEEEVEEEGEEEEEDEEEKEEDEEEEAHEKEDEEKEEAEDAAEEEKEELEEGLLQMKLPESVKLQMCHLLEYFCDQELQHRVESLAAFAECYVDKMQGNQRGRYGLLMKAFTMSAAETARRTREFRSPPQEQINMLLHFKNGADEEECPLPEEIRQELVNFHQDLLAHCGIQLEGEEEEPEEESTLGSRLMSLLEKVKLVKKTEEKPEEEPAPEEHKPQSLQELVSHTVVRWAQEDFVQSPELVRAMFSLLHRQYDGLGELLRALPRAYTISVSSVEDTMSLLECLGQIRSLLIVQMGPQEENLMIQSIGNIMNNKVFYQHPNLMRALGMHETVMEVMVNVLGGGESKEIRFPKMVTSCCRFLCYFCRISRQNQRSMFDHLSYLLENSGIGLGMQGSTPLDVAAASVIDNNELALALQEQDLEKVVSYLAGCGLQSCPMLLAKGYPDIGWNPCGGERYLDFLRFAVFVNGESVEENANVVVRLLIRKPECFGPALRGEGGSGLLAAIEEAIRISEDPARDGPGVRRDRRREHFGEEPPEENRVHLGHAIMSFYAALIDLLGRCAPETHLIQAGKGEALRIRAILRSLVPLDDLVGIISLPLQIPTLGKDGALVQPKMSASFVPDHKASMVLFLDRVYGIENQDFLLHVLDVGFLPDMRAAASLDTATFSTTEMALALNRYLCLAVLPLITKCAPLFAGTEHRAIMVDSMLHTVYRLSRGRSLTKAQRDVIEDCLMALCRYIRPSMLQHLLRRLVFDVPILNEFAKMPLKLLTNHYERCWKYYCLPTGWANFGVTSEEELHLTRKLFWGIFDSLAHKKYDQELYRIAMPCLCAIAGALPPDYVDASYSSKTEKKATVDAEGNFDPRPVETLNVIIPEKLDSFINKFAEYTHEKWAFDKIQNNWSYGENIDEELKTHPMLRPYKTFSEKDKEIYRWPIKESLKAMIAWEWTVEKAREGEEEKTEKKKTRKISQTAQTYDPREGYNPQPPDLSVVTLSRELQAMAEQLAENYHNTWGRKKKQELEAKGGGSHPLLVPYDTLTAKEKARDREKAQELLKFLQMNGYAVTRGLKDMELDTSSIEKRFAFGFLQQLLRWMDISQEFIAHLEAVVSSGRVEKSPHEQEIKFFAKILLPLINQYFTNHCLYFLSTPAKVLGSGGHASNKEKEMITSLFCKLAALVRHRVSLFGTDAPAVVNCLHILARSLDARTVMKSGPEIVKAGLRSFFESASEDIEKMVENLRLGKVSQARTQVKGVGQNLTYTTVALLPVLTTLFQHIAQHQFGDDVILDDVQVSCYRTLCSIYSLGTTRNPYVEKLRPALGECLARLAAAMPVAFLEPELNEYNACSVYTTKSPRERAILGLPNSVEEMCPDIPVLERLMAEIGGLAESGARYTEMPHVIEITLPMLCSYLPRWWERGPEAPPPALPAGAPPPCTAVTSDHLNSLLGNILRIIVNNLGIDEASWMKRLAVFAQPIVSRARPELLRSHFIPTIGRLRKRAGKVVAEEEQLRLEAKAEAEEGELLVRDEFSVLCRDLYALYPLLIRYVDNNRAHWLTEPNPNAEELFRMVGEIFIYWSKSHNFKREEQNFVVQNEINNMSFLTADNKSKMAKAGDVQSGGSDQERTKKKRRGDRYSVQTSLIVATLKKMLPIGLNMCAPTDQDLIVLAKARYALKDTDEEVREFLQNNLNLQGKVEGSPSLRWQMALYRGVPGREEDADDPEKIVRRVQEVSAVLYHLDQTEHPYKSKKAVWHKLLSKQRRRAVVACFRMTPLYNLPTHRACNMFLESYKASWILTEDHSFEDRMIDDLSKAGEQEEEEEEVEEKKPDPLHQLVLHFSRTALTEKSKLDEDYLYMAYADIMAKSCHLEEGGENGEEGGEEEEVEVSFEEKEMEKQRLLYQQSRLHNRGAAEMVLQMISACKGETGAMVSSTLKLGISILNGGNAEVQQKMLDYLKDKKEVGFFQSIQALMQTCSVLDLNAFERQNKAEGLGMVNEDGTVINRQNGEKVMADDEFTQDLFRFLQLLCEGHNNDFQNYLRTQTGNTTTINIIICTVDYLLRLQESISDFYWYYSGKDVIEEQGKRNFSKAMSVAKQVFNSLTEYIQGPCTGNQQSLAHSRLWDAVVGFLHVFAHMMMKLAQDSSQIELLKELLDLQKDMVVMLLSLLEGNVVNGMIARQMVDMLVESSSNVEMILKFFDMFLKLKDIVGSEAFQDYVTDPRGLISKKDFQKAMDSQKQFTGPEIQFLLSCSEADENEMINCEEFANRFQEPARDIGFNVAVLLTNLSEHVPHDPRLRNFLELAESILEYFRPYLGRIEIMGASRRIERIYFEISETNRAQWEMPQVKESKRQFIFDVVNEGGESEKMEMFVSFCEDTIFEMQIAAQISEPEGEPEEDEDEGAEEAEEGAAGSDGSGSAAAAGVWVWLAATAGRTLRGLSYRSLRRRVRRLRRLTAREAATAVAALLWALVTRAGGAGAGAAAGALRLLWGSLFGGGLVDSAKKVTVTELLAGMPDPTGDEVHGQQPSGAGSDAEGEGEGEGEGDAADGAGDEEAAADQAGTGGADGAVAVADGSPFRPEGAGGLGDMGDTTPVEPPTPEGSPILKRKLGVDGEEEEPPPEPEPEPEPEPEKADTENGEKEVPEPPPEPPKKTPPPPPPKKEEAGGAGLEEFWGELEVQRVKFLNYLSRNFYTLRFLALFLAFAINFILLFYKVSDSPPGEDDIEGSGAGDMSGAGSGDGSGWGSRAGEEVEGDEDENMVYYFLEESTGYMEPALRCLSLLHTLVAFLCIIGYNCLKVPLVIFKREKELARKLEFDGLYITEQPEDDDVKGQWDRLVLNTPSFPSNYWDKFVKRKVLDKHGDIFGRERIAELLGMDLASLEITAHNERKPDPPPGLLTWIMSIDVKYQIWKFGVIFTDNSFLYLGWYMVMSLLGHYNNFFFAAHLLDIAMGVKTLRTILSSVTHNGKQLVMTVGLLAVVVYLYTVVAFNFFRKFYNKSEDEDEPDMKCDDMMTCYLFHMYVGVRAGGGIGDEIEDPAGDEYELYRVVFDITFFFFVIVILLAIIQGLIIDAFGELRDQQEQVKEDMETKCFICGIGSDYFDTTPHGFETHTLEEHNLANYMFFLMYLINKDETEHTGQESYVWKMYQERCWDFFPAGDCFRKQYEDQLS
T1 sequence (P26883 whole entry partner): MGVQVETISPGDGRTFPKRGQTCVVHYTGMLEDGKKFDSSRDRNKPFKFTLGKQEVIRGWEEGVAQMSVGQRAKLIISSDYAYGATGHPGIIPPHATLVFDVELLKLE

COc1ccc2c(c1)CN(C(=O)CCN1CCC(Cc3ccccc3)CC1)CCS2.Cl [JTV-519, 4-[3-(4-benzylpiperidin-1-yl)propionyl]-7-methoxy-2,3,4,5-tetrahydro-1,4-benzothiazepine monohydrochloride]
calstabin1 in the RyR1 complex in soleus muscle (RyR1 / calstabin1; wild-type and calstabin2-/- mice, implantable osmotic minipumps, 0.5 mg/kg/day): highly significant increase
RyR1 PKA phosphorylation at Ser-2844 (RyR1 / calstabin1; wild-type animals): significant decrease
RyR1 channel activity (RyR1 [1]): normal activity
binding affinity of calstabin1 for PKA phosphorylated RyR1 ([2]; relative to non-PKA phosphorylated RyR1): restored
concentration that increased the binding affinity of calstabin for RyR ([2]; skeletal RyR1 with calstabin1, immunoblotting): ≥ 50 nM
RyR1 channel gating in skeletal muscle (RyR1 [3]): normalized
resting heart rate or other ECG parameters (FKBP12.6+/- mice; 0.5 mg/kg per hour for 7 days, implanted osmotic mini-pump): no effect
plasma levels that prevent cardiac arrhythmias and sudden cardiac death (FKBP12.6+/- mice; FKBP12.6+/- mice, exercise testing and 0.5 mg/kg epinephrine): 1 µM
exercise-induced ventricular arrhythmias (FKBP12.6+/- mice; haploinsufficient calstabin (FKBP12.6)+/- mice): prevention
soleus muscle fatigue times (soleus muscle; calstabin2-/- knockout mice with heart failure): significantly improved
soleus muscle fatigue times (soleus muscle; wild-type mice with heart failure, vs placebo): improved soleus muscle fatigue times

From patent US7704990B2, “Agents for preventing and treating disorders involving modulation of the RyR receptors” (The Trustees of Columbia University in the City of New York, priority 2005, dated 2010)
